Source: PMC7660650, “Chemical Starting Matter for HNF4α Ligand Discovery and Chemogenomics” (International Journal of Molecular Sciences, 2020)
Values joined by “and” are separate entries in the source; they are usually repeats but may differ in a detail not shown here. Identical values can stand only once. “Also recorded” adds a separate entry of the source. Like-named read-outs stand apart in the source and are kept apart here.

Legend:
[1] = target: T1, Gal4-HNF4α (human HNF4α LBD) (Homo sapiens, UniProt P41235); assay: Hybrid Gal4-HNF4α reporter gene assay in transiently transfected HEK293T cells; format: cell-based; details: for Primary Screen (Fold Act., 50 µM): mean of two biologically independent repeats, vs. 0.2% DMSO; for Follow-up HNF4α (fold activation of reporter activity) / EC50: at least four repeats; for HNF4α Ligand Type: Gal4-HNF4α assay; for HNF4a-screening_activity_(mean_of_n=2): Table S1, primary screening; for EC50: read-out: Validated HNF4α Modulation EC50
T1 construct: uniprot entry: P41235-1, residues 142-377; expressed in transfected cells; host or cells: HEK293T
T1 sequence (P41235 142-377): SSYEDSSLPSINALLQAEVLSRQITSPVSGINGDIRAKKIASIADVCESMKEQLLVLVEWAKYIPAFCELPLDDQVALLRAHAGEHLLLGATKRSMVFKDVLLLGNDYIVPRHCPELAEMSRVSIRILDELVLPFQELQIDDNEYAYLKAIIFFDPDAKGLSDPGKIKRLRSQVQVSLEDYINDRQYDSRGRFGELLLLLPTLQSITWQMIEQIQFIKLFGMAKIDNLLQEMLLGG

[2] = target: T2, recombinant HNF4α LBD protein (Homo sapiens, UniProt P41235); assay: Isothermal titration calorimetry (ITC); format: binding; details: for Kd: 25 °C, protein 10–20 µM titrated with ligand 50–200 µM, read-out: HNF4α LBD Binding (Kd); for n (ITC binding model): Figure 4
T2 construct: The LDB domain of HNF4α (aa. 148–377) subcloned into pNIC28-Bsa4; His6 (N); made in house; host or cells: E. coli Rosetta
T2 sequence (P41235 148-377): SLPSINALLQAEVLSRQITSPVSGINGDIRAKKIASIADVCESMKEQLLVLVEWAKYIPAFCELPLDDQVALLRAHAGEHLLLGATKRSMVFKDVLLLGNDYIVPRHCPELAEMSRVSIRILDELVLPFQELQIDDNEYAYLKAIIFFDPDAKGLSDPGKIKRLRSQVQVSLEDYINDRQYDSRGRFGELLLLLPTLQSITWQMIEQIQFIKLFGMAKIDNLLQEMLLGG
Description: The recombinant protein harboring an N-terminal His6 tag was initially purified by Ni^2+-affinity chromatography. Size exclusion chromatography was performed using Superdex S75 column (GE Healthcare, Chicago, IL, USA.), and the pure protein was stored in a buffer containing 20 mM 4-(2-hydroxyethyl)-1-piperazineethanesulfonic acid (HEPES) pH 7.5, 200 mM NaCl, 0.5 mM tris(2-carboxyethyl)phosphine (TCEP), and 5% w/v glycerol.
Isothermal titration calorimetry was performed on an Affinity ITC (TA Instruments, New Castle, DE, USA). The instrument was equilibrated to 25 °C and the stirring rate was set to 75 rpm. HNF4α buffer (20 mM HEPES pH 7.5, 200 mM NaCl, 0.5 mM TCEP, 5% w/v glycerol) with up to 1% DMSO (final concentration) was used for ITC. The recombinant HNF4α LBD protein (10–20 µM, 172 µL) was titrated with fragments (4, 6, 7, 9, 10; 50–200 µM; dissolved in the same buffer). A total of 20-30 injections with a volume of 2.5–4 µL and with an interval of 200–300 s were performed. As a control experiment, HNF4α protein was titrated with buffer, and the buffer was titrated with test compound to detect dissolution artifacts with otherwise identical experimental parameters. Data analysis was performed with NanoAnalyze^TM Software (TA Instruments, New Castle, DE, USA.) using an independent binding model.

Gal4–VP16 = assay: Gal4-VP16 control experiment (reporter gene assay, HEK293T cells); format: cell-based; details: mean ± SD
Description: The frame and sequence of the fusion plasmid were verified by sequencing. pFR-Luc (Stratagene) was used as reporter plasmid and pRL-SV40 (Promega, Madison, WI, USA) served for normalization of transfection efficiency and cell growth. The Gal4-VP16 [25] expressed from plasmid pECE-SV40-Gal4-VP16 [26] […] Assay Procedure: HEK293T cells were grown in Dulbecco’s Modified Eagle Medium (DMEM) high glucose, supplemented with 10% Fetal Bovine Serum (FCS), sodium pyruvate (1 mM), penicillin (100 U/mL), and streptomycin (100 μg/mL) at 37 °C and 5% CO2. The day before transfection, HEK293T cells were seeded in 96-well plates (3.0·10^4 cells/well). Before transfection, the medium was changed to Opti-MEM without supplements. Transient transfection was carried out using Lipofectamine LTX reagent (Invitrogen, Carlsbad, CA, USA) according to the manufacturer’s protocol with pFR-Luc (Stratagene), pRL-SV40 (Promega), and the pFA-CMV-hHNF4α-LBD clone or pECE-SV40-Gal4-VP16 for control experiments. Five hours after transfection, the medium was changed to Opti-MEM supplemented with penicillin (100 U/mL), streptomycin (100 μg/mL), now additionally containing 0.1% DMSO (0.2% in the primary screen) and the respective test compounds or 0.1% DMSO (0.2% in the primary screen) alone as the untreated control. In the primary screening, the core set of the Prestwick Drug Fragment Library (Prestwick Chemical, Illkirch, France) was tested at 50 µM concentration in two biologically independent repeats. In the follow-up and dose-response profiling, each concentration was tested in duplicates in at least three biologically independent repeats. Following overnight (12−14 h) incubation with the test compounds, cells were assayed for luciferase activity using Dual-Glo™ luciferase assay system (Promega) according to the manufacturer’s protocol. Luminescence was measured with a Tecan Spark 10M luminometer (Tecan Group Ltd., Männedorf, Switzerland). […] Fold activation was obtained by dividing the mean RLU of test compounds at a respective concentration by the mean RLU of untreated control.

[3] = tested on: HNF4α-regulated gene fructose-1,6-bisphosphatase 1 (FBP1); assay: FBP1 mRNA expression in HepG2 cells by qRT-PCR; format: cell-based, human; details: 8 h, vs 0.1% DMSO
[4] = target: the molecule itself; assay: ITC; HNF4α LBD protein alone; dimer dissociation upon dilution (seen when inverse ITC experiments were tried); dimer to monomers
[5] = significance of Gal4-HNF4α follow-up vs Gal4-VP16 control at the same concentration

With `Nc1ncns1` [compound 7, Nc1ncns1] the “Primary Screen (Fold Act., 50 µM)” value ([1]; 50 µM) was 2.36 fold activation, the “Follow-up HNF4α (fold activation of reporter activity)” value ([1]; 50 µM, mean ± SD) was 3.0 ± 0.3 (50 µM) fold activation and the “HNF4α Ligand Type” value [1] was “Agonist”. For the same molecule, the “HNF4a-screening_activity_(mean_of_n=2)” value ([1]; 50 µM) was 2.362, the EC50 ([1]; dose-response, mean ± SD) was 31 µM and the “Validated HNF4α Modulation maximum fold act.” value ([1]; maximum fold increase in reporter activity relative to 0.1% DMSO) was 3.8 fold act. and 3.8 ± 0.6 fold act. The “HNF4α vs. VP16 (p, t-test)” value [1, 5] was “p < 0.0001 (***)”, the Kd [2] was ~7 µM and 7 µM and the “n (ITC binding model)” value [2] was 0.9. For the same molecule, the “VP16 Control (fold activation of reporter activity)” value (Gal4–VP16; 50 µM) was 1.4 ± 0.1 (50 µM) fold activation and the “FBP1 mRNA expression” value ([3]; HepG2, 50 µM) was “promoted FBP1 expression; also recorded: tendency to enhanced FBP1 mRNA levels”.

For `Cc1cc(C(C)(C)CC(C)(C)C)ccc1O` [compound 1, Cc1cc(ccc1O)C(C)(C)CC(C)(C)C], the “Primary Screen (Fold Act., 50 µM)” value ([1]; 50 µM) was 2.48 fold activation, the “Follow-up HNF4α (fold activation of reporter activity)” value ([1]; 50 µM, mean ± SD) was 1.1 ± 0.2 (50 µM) fold activation and the “HNF4a-screening_activity_(mean_of_n=2)” value ([1]; 50 µM, listed as Prestw-Frag-1016) was 2.483 and 1.264. The “VP16 Control (fold activation of reporter activity)” value (Gal4–VP16; 50 µM) was 0.80 ± 0.07 (50 µM) fold activation.

With `OC(c1ccc(F)cc1)c1ccc(F)cc1` [compound 10] the “Follow-up HNF4α (fold activation of reporter activity)” value ([1]; 50 µM, mean ± SD) was 0.75 ± 0.05 (50 µM) fold activation, the “HNF4α Ligand Type” value [1] was “inverse HNF4α agonism; also recorded: Inverse agonist” and the IC50 ([1]; dose-response, inverse agonism, mean ± SD, read-out: Validated HNF4α Modulation IC50) was 24 µM. The “HNF4α vs. VP16 (p, t-test)” value [1, 5] was “p = 0.0057 (**)”, the Kd [2] was ~1.7 µM and 1.7 µM and the “n (ITC binding model)” value [2] was 1.1. The “VP16 Control (fold activation of reporter activity)” value (Gal4–VP16; 50 µM) was 1.1 ± 0.2 (50 µM) fold activation and the “FBP1 mRNA expression” value ([3]; HepG2, 50 µM) was “decreased FBP1 mRNA levels; also recorded: robustly decreased FBP1 expression”.

In the case of `Cc1nc(-c2ccccc2)c(-c2ccccc2)o1` [compound 8], the “Follow-up HNF4α (fold activation of reporter activity)” value ([1]; 50 µM, mean ± SD) is reported as 1.1 ± 0.2 (50 µM) fold activation and the “VP16 Control (fold activation of reporter activity)” value (Gal4–VP16; 50 µM) is reported as 0.92 ± 0.07 (50 µM) fold activation.

For `Cc1cc(=O)n(-c2ccc(C)c(C)c2)[nH]1` [compound 11, Cc1cc(=O)n([nH]1)-c1ccc(C)c(C)c1], the “Primary Screen (Fold Act., 50 µM)” value ([1]; 50 µM) was 0.32 fold activation, the “Follow-up HNF4α (fold activation of reporter activity)” value ([1]; 50 µM, mean ± SD) was “tendency for HNF4α modulation” and the “Follow-up HNF4α (fold activation of reporter activity)” value ([1]; 100 µM, mean ± SD) was 0.21 ± 0.03 (100 µM) fold activation. For the same molecule, the “HNF4a-screening_activity_(mean_of_n=2)” value ([1]; 50 µM) was 0.3184 and the “VP16 Control (fold activation of reporter activity)” value (Gal4–VP16; 100 µM) was 0.21 ± 0.02 (100 µM) fold activation.

For `O=C(Nc1ccccc1Cl)c1ccccc1O` [compound 4, Oc1ccccc1C(=O)Nc1ccccc1Cl], the “FBP1 mRNA expression” value ([3]; HepG2, 50 µM) was “promoted FBP1 expression; also recorded: tendency to enhanced FBP1 mRNA levels”.

With `Nc1nc2cc(C(=O)c3ccccc3)ccc2[nH]1` [compound 3] the “Primary Screen (Fold Act., 50 µM)” value ([1]; 50 µM) was 2.09 fold activation, the “Follow-up HNF4α (fold activation of reporter activity)” value ([1]; 50 µM, mean ± SD) was 1.5 ± 0.2 (50 µM) fold activation and the “VP16 Control (fold activation of reporter activity)” value (Gal4–VP16; 50 µM) was 1.7 ± 0.3 (50 µM) fold activation.

In the case of `Nc1ncn([C@@H]2O[C@H](CO)[C@@H](O)[C@H]2O)c(=O)n1` [compound 6, Nc1ncn([C@@H]2O[C@H](CO)[C@@H](O)[C@H]2O)c(=O)n1], the “HNF4α vs. VP16 (p, t-test)” value [1] is reported as “p = 0.0034 (**)” and the “FBP1 mRNA expression” value ([3]; HepG2, 10 µM) is reported as “significantly promoted FBP1 expression”.

`CC(C)CC(N)C1(c2ccc(Cl)cc2)CCC1` (centres unmarked) [compound 5, CC(C)CC(N)C1(CCC1)c1ccc(Cl)cc1] was tested, and the “Primary Screen (Fold Act., 50 µM)” value ([1]; 50 µM) was 1.80 fold activation, the “Follow-up HNF4α (fold activation of reporter activity)” value ([1]; 50 µM, mean ± SD) was “tendency for HNF4α modulation” and the “Follow-up HNF4α (fold activation of reporter activity)” value ([1]; 100 µM, mean ± SD) was 2.5 ± 0.2 (100 µM) fold activation. The “HNF4α Ligand Type” value [1] was “Agonist”, the “HNF4a-screening_activity_(mean_of_n=2)” value ([1]; 50 µM, listed as Prestw-Frag-1566) was 0.9114 and 1.797 and the EC50 ([1]; dose-response, mean ± SD) was greater than 100 µM. For the same molecule, the “HNF4α vs. VP16 (p, t-test)” value [1, 5] was “p < 0.0001 (***)” and the “VP16 Control (fold activation of reporter activity)” value (Gal4–VP16; 100 µM) was 1.1 ± 0.1 (100 µM) fold activation.

With `COc1ccc2c(c1)OCC2=O` [compound 2, COc1ccc2C(=O)COc2c1] the “Primary Screen (Fold Act., 50 µM)” value ([1]; 50 µM) was 1.55 fold activation, the “Follow-up HNF4α (fold activation of reporter activity)” value ([1]; 50 µM, mean ± SD) was 1.3 ± 0.2 (50 µM) fold activation and the “HNF4a-screening_activity_(mean_of_n=2)” value ([1]; 50 µM, listed as Prestw-Frag-1362) was 0.8621 and 1.554. For the same molecule, the “VP16 Control (fold activation of reporter activity)” value (Gal4–VP16; 50 µM) was 1.3 ± 0.3 (50 µM) fold activation.

In the case of `O=C(O)c1cc(-c2ccccc2)ccc1O` [compound 9, OC(=O)c1cc(ccc1O)-c1ccccc1], the “FBP1 mRNA expression” value ([3]; HepG2, 50 µM) is reported as “decreased FBP1 mRNA levels; also recorded: robustly decreased FBP1 expression”.

B1: recombinant HNF4α LBD protein (hepatocyte nuclear factor 4α ligand-binding domain, aa. 148–377) (domain or fragment, human, UniProt P41235-1 148-377, looked up)
chain: SLPSINALLQAEVLSRQITSPVSGINGDIRAKKIASIADVCESMKEQLLVLVEWAKYIPAFCELPLDDQVALLRAHAGEHLLLGATKRSMVFKDVLLLGNDYIVPRHCPELAEMSRVSIRILDELVLPFQELQIDDNEYAYLKAIIFFDPDAKGLSDPGKIKRLRSQVQVSLEDYINDRQYDSRGRFGELLLLLPTLQSITWQMIEQIQFIKLFGMAKIDNLLQEMLLGG
notes: 148-377, subcloned into pNIC28-Bsa4; UniProt entry and species are printed for the Gal4-HNF4α reporter construct, not expressly for the E. coli construct; also called NR2A1
B1: binds [4].
